In PubChem BioAssay AID330 (DTP/NCI, 2004) one finds T/C data, which are given here for 23 compounds.

For the assay, the system named is P388 leukemia ip, CD2F1 mice, survival T/C. The assay can be described thus: NCI In Vivo Anticancer Drug Screen. Data for tumor model P388 Leukemia (intraperitoneal) in CD2F1 (CDF1) mice. The conditions noted are these: endpoint: median survival time, higher = longer survival. In outline:
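Mice carrying the transplanted tumor received test compound or vehicle. Survival was recorded in each group, and the value is the treated-group measurement divided by that of the vehicle-treated control group.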

[1] abbreviates: dose: 60.0 mg/kg/injection, schedule: Q01DX005 (ip), vehicle: saline.
[2] abbreviates: dose: 120.0 mg/kg/injection, schedule: Q01DX005 (ip), vehicle: saline.
Setting [3] is: dose: 50.0 mg/kg/injection, schedule: Q01DX009 (ip), vehicle: saline with Tween-80.
The mark [4] stands for this setting: dose: 100.0 mg/kg/injection, schedule: Q01DX009 (ip), vehicle: saline with Tween-80.
Setting [5] is: dose: 100.0 mg/kg/injection, schedule: Q04DX003 (ip), vehicle: saline.
Where [6] appears, read: dose: 400.0 mg/kg/injection, schedule: Q04DX003 (ip), vehicle: saline.
[7] abbreviates: dose: 25.0 mg/kg/injection, schedule: Q04DX003 (ip), vehicle: saline.
Where [8] appears, read: dose: 50.0 mg/kg/injection, schedule: Q01DX005 (ip), vehicle: saline with Tween-80.
Where [9] appears, read: dose: 100.0 mg/kg/injection, schedule: Q01DX005 (ip), vehicle: saline with Tween-80.
Where [10] appears, read: dose: 50.0 mg/kg/injection, schedule: Q01DX005 (ip), vehicle: Klucel (hydroxypropylcellulose) (HPC).
Where [11] appears, read: dose: 100.0 mg/kg/injection, schedule: Q01DX005 (ip), vehicle: Klucel (hydroxypropylcellulose) (HPC).
The mark [12] stands for this setting: dose: 200.0 mg/kg/injection, schedule: Q01DX005 (ip), vehicle: Klucel (hydroxypropylcellulose) (HPC).

Where “and” joins values, the source holds several entries; their conditions need not be identical. Identical values can stand only once. Inconclusive results and toxic doses are left out.

Regarding `O=C1C(N=Nc2ccc(S(=O)(=O)Nc3ccccn3)cc2)C(=O)N(c2ccccc2)C(=S)N1c1ccccc1`, the T/C is, setting by setting: under setting [1], 95 % of control; under setting [2], 104 % of control; (dose: 240.0 mg/kg/injection, schedule: Q01DX005 (ip), vehicle: saline) 100 % of control.

For the compound `CN1CCC(C#N)(c2ccccn2)CC1`, the T/C is 100 % of control (dose: 2.5 mg/kg/injection, schedule: Q01DX009 (ip), vehicle: saline); 109 % of control (dose: 5.0 mg/kg/injection, schedule: Q01DX009 (ip), vehicle: saline); 100 % of control (dose: 10.0 mg/kg/injection, schedule: Q01DX009 (ip), vehicle: saline).

Regarding `C=C1C(=O)OC2CC(C)/C=C\C(=O)C(C)(O)C(O)C(O)C12` (configuration not stated) (tested in a mixture with another compound), the T/C is 113 % of control (dose: 12.5 mg/kg/injection, schedule: Q01DX001 (ip), vehicle: Klucel (hydroxypropylcellulose) (HPC)) and 105 % of control (dose: 25.0 mg/kg/injection, schedule: Q01DX001 (ip), vehicle: Klucel (hydroxypropylcellulose) (HPC)).

For the compound `CSC(=S)N=Nc1c(O)[nH]c2ccccc12`, the T/C (dose: 50.0 mg/kg/injection, schedule: Q01DX009 (ip), vehicle: saline) is 93 % of control; the T/C (dose: 100.0 mg/kg/injection, schedule: Q01DX009 (ip), vehicle: saline) was 96 % of control; the T/C (dose: 200.0 mg/kg/injection, schedule: Q01DX009 (ip), vehicle: saline) was 99 % of control.

Regarding `CC(=O)N(c1nc2ccccc2n1C)C(C)C`, the T/C is, setting by setting: (dose: 25.0 mg/kg/injection, schedule: Q01DX009 (ip), vehicle: saline with Tween-80) 110 % of control; under setting [3], 98 % of control; under setting [4], 115 % of control.

For the compound `COC(=O)/C(C#N)=C(C)/C=C/c1ccc(OC)cc1`, the T/C by setting is: under setting [5], 97 % of control; (dose: 200.0 mg/kg/injection, schedule: Q04DX003 (ip), vehicle: saline) 92 % of control; under setting [6], 98 % of control.

`O=C(COP(=O)(OCC(=O)Oc1ccc([N+](=O)[O-])cc1)Oc1ccc([N+](=O)[O-])cc1)Oc1ccc([N+](=O)[O-])cc1`: the T/C runs as follows: (dose: 25.0 mg/kg/injection, schedule: Q01DX009 (ip), vehicle: other) 102 % of control; (dose: 50.0 mg/kg/injection, schedule: Q01DX009 (ip), vehicle: other) 98 % of control; (dose: 100.0 mg/kg/injection, schedule: Q01DX009 (ip), vehicle: other) 93 % of control; (dose: 200.0 mg/kg/injection, schedule: Q01DX009 (ip), vehicle: other) 91 % of control; (dose: 400.0 mg/kg/injection, schedule: Q01DX009 (ip), vehicle: other) 108 % of control.

Take `CN(C)c1nc(OC2C(C(O)CO)OC3OC(C)(C)OC32)nc(N(C)C)n1` (configuration not stated): the T/C (dose: 100.0 mg/kg/injection, schedule: Q04DX003 (ip), vehicle: saline with Tween-80) is 105 % of control; the T/C (dose: 200.0 mg/kg/injection, schedule: Q04DX003 (ip), vehicle: saline with Tween-80) is 95 % of control; the T/C (dose: 400.0 mg/kg/injection, schedule: Q04DX003 (ip), vehicle: saline with Tween-80) was 92 % of control.

With `CC(=O)N1CCCC2=C1CCCC2`, the T/C was 100 % of control under setting [7]; 103 % of control (dose: 50.0 mg/kg/injection, schedule: Q04DX003 (ip), vehicle: saline); 104 % of control and 92 % of control under setting [5]; 101 % of control under setting [6].

`O=c1nc2n(CC(O)C(O)C(O)C(O)CO)c3cc(Cl)c(Cl)cc3nc-2c(=O)[nH]1` (configuration not stated): the T/C reads like this: under setting [8], 105 % of control; under setting [9], 111 % of control.

As for `CC(C)(C)N1COCCOC1`, under setting [4], the T/C is 118 % of control.

In the case of `COC(=O)Cc1cc(=O)[nH][nH]1`, the T/C is 93 % of control (dose: 50.0 mg/kg/injection, schedule: Q01DX001 (ip), vehicle: suspension in saline); 95 % of control (dose: 100.0 mg/kg/injection, schedule: Q01DX001 (ip), vehicle: suspension in saline); 86 % of control (dose: 200.0 mg/kg/injection, schedule: Q01DX001 (ip), vehicle: suspension in saline).

As to `CC(C)CC1NC(=O)C(CC(C)C)N(CO)C1=O` (configuration not stated), the T/C under setting [10] is 97 % of control, the T/C under setting [11] was 99 % of control and the T/C under setting [12] is 95 % of control.

For the compound `Cc1ccc(C(=O)C=C(C(F)(F)F)C(F)(F)F)cc1`, the T/C is 100 % of control (dose: 6.25 mg/kg/injection, schedule: Q01DX009 (ip), vehicle: saline); 95 % of control (dose: 6.25 mg/kg/injection, schedule: Q04DX003 (ip), vehicle: saline); 100 % of control (dose: 12.5 mg/kg/injection, schedule: Q01DX009 (ip), vehicle: saline); 95 % of control (dose: 12.5 mg/kg/injection, schedule: Q04DX003 (ip), vehicle: saline); 109 % of control (dose: 25.0 mg/kg/injection, schedule: Q01DX009 (ip), vehicle: saline); 104 % of control under setting [7].

For the compound `CN1CCC2(CC1)C(C#N)C(=O)NC(=O)C2C#N` (configuration not stated), the T/C is 105 % of control under setting [8]; 100 % of control under setting [9]; 100 % of control (dose: 200.0 mg/kg/injection, schedule: Q01DX005 (ip), vehicle: saline with Tween-80).

`Cn1c(=O)[nH]c(=O)c2nc(-c3ccccc3)c(-c3ccccc3)nc21`: the T/C (dose: 100.0 mg/kg/injection, schedule: Q01DX001 (ip), vehicle: Klucel (hydroxypropylcellulose) (HPC)) was 96 % of control; the T/C (dose: 200.0 mg/kg/injection, schedule: Q01DX001 (ip), vehicle: Klucel (hydroxypropylcellulose) (HPC)) is 99 % of control; the T/C (dose: 400.0 mg/kg/injection, schedule: Q01DX001 (ip), vehicle: Klucel (hydroxypropylcellulose) (HPC)) is 96 % of control.

Take `COc1cc(N(C)c2cc(=O)n(C)c(=O)[nH]2)ccc1C`: the T/C runs as follows: (dose: 12.5 mg/kg/injection, schedule: Q01DX005 (ip), vehicle: saline with Tween-80) 101 % of control; (dose: 25.0 mg/kg/injection, schedule: Q01DX005 (ip), vehicle: saline with Tween-80) 101 % of control; under setting [8], 100 % of control and 94 % of control.

Consider `CC(CN(C)C)C(=O)/C=C/c1c(Cl)cccc1Cl` (configuration not stated), for which the T/C (dose: 60.0 mg/kg/injection, schedule: Q01DX005 (ip), vehicle: saline with Tween-80) is 111 % of control.

As to `CN(C)CCCN=C(N)CSP(=O)(O)O`, the T/C reads like this: under setting [1], 98 % of control; under setting [2], 104 % of control.

Turning to `O=Cc1ccc2occc2c1O`, the T/C (dose: 3.75 mg/kg/injection, schedule: Q01DX009 (ip), vehicle: saline with Tween-80) is 95 % of control; the T/C (dose: 7.5 mg/kg/injection, schedule: Q01DX009 (ip), vehicle: saline with Tween-80) is 94 % of control; the T/C (dose: 15.0 mg/kg/injection, schedule: Q01DX009 (ip), vehicle: saline with Tween-80) was 92 % of control.

For `CC(Nc1cnccn1)Nc1cnccn1`, the T/C is, setting by setting: under setting [10], 102 % of control; under setting [11], 105 % of control; under setting [12], 104 % of control.

Turning to `COc1cc([N+](=O)[O-])ccc1NC(=O)Nc1nccs1`, the T/C under setting [3] is 93 % of control; the T/C under setting [4] was 101 % of control; the T/C (dose: 200.0 mg/kg/injection, schedule: Q01DX009 (ip), vehicle: saline with Tween-80) is 99 % of control.

Take `CN1c2cc3ccccc3cc2N(C)c2cc3ccccc3cc21`: the T/C was 90 % of control under setting [10] and 88 % of control under setting [12].
